Experimental data taken from patent US20230174584A1, “Antibiotic Compounds” (priority 2019, published 2023).
Converted amounts (≈) assume the structure as drawn. Read-outs that look alike come from different tables or passages of the source.

Experiments:
E. faecalis E7604 = experiment: microbe, parasite or virus in culture; format: cell-based, Enterococcus faecalis
Procedure, shortened: (§1)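 Read-out: lowest concentration inhibiting growth, reported as the median MIC (μg/mL) over ≥ triplicates. Set-up: CLSI method, TSB with 0.002% polysorbate 80, 10^6 CFU/mL inoculum added in equal volume to 2-fold dilutions, 37 °C for 24 h with 600 rpm agitation.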

E. faecalis E7406 = experiment: microbe, parasite or virus in culture; format: cell-based, Enterococcus faecalis
Procedure, shortened: as §1

E. faecalis E1246 = experiment: MIC assay; format: cell-based, Enterococcus faecalis
Procedure, shortened: as §1

[1] = system: S. aureus HIP13419, NR-46413; experiment: microbe, parasite or virus in culture; format: cell-based, Staphylococcus aureus
Procedure, shortened: as §1

S. aureus USA300 = experiment: microbe, parasite or virus in culture; format: cell-based, Staphylococcus aureus
Procedure, shortened: as §1

S. pneumoniae 153 = experiment: MIC assay; format: cell-based
Procedure, shortened: as §1

Escherichia coli W3110 = experiment: MIC assay; format: cell-based
Procedure, shortened: as §1

[2] = system: Klebsiella pneumoniae ATCC 13883; experiment: MIC assay; format: cell-based
Procedure, shortened: as §1

[3] = system: Escherichia coli ATCC 25922; experiment: MIC assay; format: cell-based
Procedure, shortened: as §1

[4] = system: Klebsiella pneumoniae JS265; experiment: MIC assay; format: cell-based
Procedure, shortened: as §1

[5] = system: Escherichia coli ATCC 35218; experiment: MIC assay; format: cell-based
Procedure, shortened: as §1

[6] = system: Klebsiella pneumoniae ATCC 27736; experiment: MIC assay; format: cell-based
Procedure, shortened: as §1

E. faecium E7312 = experiment: MIC assay; format: cell-based, Enterococcus faecium
E. faecium E7314 = experiment: microbe, parasite or virus in culture; format: cell-based, Enterococcus faecium
Procedure, shortened: as §1

E. faecium E155 = experiment: microbe, parasite or virus in culture; format: cell-based, Enterococcus faecium
Procedure, shortened: as §1

E. faecium E0341 = experiment: MIC assay; format: cell-based, Enterococcus faecium
E. faecium E0338 = experiment: MIC assay; format: cell-based, Enterococcus faecium
[7] = E. faecalis E1246 VRE (vanA), Table 9
[8] = Staphylococcus aureus, MRSA / USA300

Structure (SMILES) | MIC (E. faecalis E1246; [7]) | MIC [5] | MIC (E. faecalis E7604; Enterococcus faecalis, VRE) | MIC (E. faecalis E7406; Enterococcus faecalis, VRE) | MIC (E. faecalis E1246; Enterococcus faecalis, VRE) | MIC ([1]; Staphylococcus aureus, VRSA) | MIC (S. aureus USA300; [8]) | MIC (S. pneumoniae 153; Streptococcus pneumoniae, 153) | MIC (Escherichia coli W3110; read-out: MIC) | MIC ([2]; ATCC13883, read-out: MIC) | MIC ([3]; ATCC25922, read-out: MIC) | MIC ([4]; read-out: MIC) | MIC ([6]; ATCC27736, read-out: MIC) | MIC (E. faecium E7312; Enterococcus faecium, E7312) | MIC (E. faecium E7314; Enterococcus faecium, E7314) | MIC (E. faecium E7314; Enterococcus faecium, VRE) | MIC (E. faecium E155; Enterococcus faecium, E155) | MIC (E. faecium E155; Enterococcus faecium, VRE) | MIC (E. faecium E0341; Enterococcus faecium, E0341) | MIC (E. faecium E0338; Enterococcus faecium, E0338) | other results
CN[C@H](CC(C)C)C(=O)N[C@H]1C(=O)N[C@@H](CC(N)=O)C(=O)N[C@H]2C(=O)N[C@H]3C(=O)N[C@H](C(=O)N[C@H](C(=O)O)c4cc(O)cc(O)c4-c4cc3ccc4O)[C@H](O)c3ccc(c(Cl)c3)Oc3cc2cc(c3O[C@@H]2O[C@H](CO)[C@@H](O)[C@H](O)[C@H]2O[C@H]2C[C@](C)(NCc3ccc(N=C(N)NC/C=C(\C)CCC=C(C)C)cc3)[C@H](O)[C@H](C)O2)Oc2ccc(cc2Cl)[C@H]1O [Compound 14] | 8 µg/mL (≈ 4.62 µM) | >128 µg/mL | – | – | – | – | – | – | – | – | – | – | – | – | – | – | – | – | – | – | MIC (E. faecalis E7604; E. faecalis E7604 VRE (vanB)): ≤0.008 µg/mL; MIC (E. faecalis E7406; E. faecalis E7406 VRE (VanB)): ≤0.007812 µg/mL; MIC (E. faecalis E1246; E. faecalis E1246 VRE (VanA), Table 7): 8 µg/mL (≈ 4.62 µM); MIC ([1]; S. aureus HIP13419, NR-46413 VRSA): 0.063 µg/mL (≈ 0.0364 µM); MIC (S. aureus USA300; MRSA USA300, TSB + 0.002% p80): 0.031 µg/mL; MIC (S. aureus USA300; S. aureus USA300 MRSA): 0.03125 µg/mL (≈ 0.018 µM); MIC (S. pneumoniae 153; S. pneumoniae 153, TSB+0.002% p80+5% lysed horse blood): ≤0.008 µg/mL; MIC (Escherichia coli W3110): >128 µg/mL; MIC [2]: >128 µg/mL; MIC [3]: >128 µg/mL; MIC [4]: >128 µg/mL; MIC [6]: >128 µg/mL; MIC (E. faecium E7312; E. faecium E7312, VanA): 0.25 µg/mL (≈ 0.144 µM); MIC (E. faecium E7314; E. faecium E7314, VanB (Table 10)): ≤0.008 µg/mL; MIC (E. faecium E7314; E. faecium E7314 VRE (VanB)): ≤0.007812 µg/mL; MIC (E. faecium E155; E. faecium E155, VanA (Table 10)): 1 µg/mL (≈ 0.577 µM); MIC (E. faecium E155; E. faecium E155 VRE (VanA)): 1 µg/mL (≈ 0.577 µM); MIC (E. faecium E0341; E. faecium E0341, VanA): 4 µg/mL (≈ 2.31 µM); MIC (E. faecium E0338; E. faecium E0338, VanA): 4 µg/mL (≈ 2.31 µM)
CCCCCCCCCCNCCN[C@@]1(C)C[C@H](O[C@H]2[C@H](Oc3c4cc5cc3Oc3ccc(cc3Cl)[C@@H](O)[C@@H](NC(=O)[C@@H](CC(C)C)NC)C(=O)N[C@@H](CC(N)=O)C(=O)N[C@H]5C(=O)N[C@H]3C(=O)N[C@H](C(=O)N[C@H](C(=O)O)c5cc(O)c(CNCP(=O)(O)O)c(O)c5-c5cc3ccc5O)[C@H](O)c3ccc(c(Cl)c3)O4)O[C@H](CO)[C@@H](O)[C@@H]2O)O[C@@H](C)[C@H]1O [Telavancin, reference compound] | 4 µg/mL (≈ 2.28 µM) | > 128 µg/mL | 0.063 µg/mL (≈ 0.0359 µM) | 0.0625 µg/mL (≈ 0.0356 µM) | 4 µg/mL (≈ 2.28 µM) | 4 µg/mL (≈ 2.28 µM) | 0.125 µg/mL (≈ 0.0712 µM) | ≤ 0.008 µg/mL | > 128 µg/mL | > 128 µg/mL | > 128 µg/mL | > 128 µg/mL | > 128 µg/mL | 2 µg/mL (≈ 1.14 µM) | ≤ 0.008 µg/mL | ≤ 0.00781 µg/mL | 4 µg/mL (≈ 2.28 µM) | 4 µg/mL (≈ 2.28 µM) | 8 µg/mL (≈ 4.56 µM) | 8 µg/mL (≈ 4.56 µM) | –
CN[C@H](CC(C)C)C(=O)N[C@H]1C(=O)N[C@@H](CC(N)=O)C(=O)N[C@H]2C(=O)N[C@H]3C(=O)N[C@H](C(=O)N[C@H](C(=O)O)c4cc(O)cc(O)c4-c4cc3ccc4O)[C@H](O)c3ccc(c(Cl)c3)Oc3cc2cc(c3O[C@@H]2O[C@H](CO)[C@@H](O)[C@H](O)[C@H]2O[C@H]2C[C@](C)(N)[C@H](O)[C@H](C)O2)Oc2ccc(cc2Cl)[C@H]1O [Vancomycin, reference compound] | >128 µg/mL | > 128 µg/mL | 16 µg/mL (≈ 11 µM) | 16 µg/mL (≈ 11 µM) | > 128 µg/mL | > 128 µg/mL | 1 µg/mL (≈ 0.69 µM) | 0.5 µg/mL (≈ 0.345 µM) | > 128 µg/mL | > 128 µg/mL | > 128 µg/mL | > 128 µg/mL | > 128 µg/mL | > 128 µg/mL | 128 µg/mL (≈ 88.3 µM) | 128 µg/mL (≈ 88.3 µM) | > 128 µg/mL | > 128 µg/mL | > 128 µg/mL | > 128 µg/mL | –
